Assay results published in US10208000B2, “Eis inhibitors” (priority 2015, dated 2019).

System: K204 Mtb
Format: cell-based, Mycobacterium tuberculosis

| SMILES | overcoming resistance to KAN in Mtb K204 (in words) |
| --- | --- |
| CC1=C(c2ccc(C)cc2)S(=O)(=O)N=C1NCCN1CCOCC1 [Compound 35e] | did not overcome resistance to KAN |
| CCN1CCN(CCNC2=NS(=O)(=O)C(c3ccc(OC)cc3)=C2C)CC1 [Compound 37d] | did not overcome resistance to KAN |
| CC1=C(c2ccc(F)cc2)S(=O)(=O)N=C1NCc1ccco1 [Compound 87b] | did not overcome resistance to KAN |
| CC1=C(c2ccc(F)cc2)S(=O)(=O)N=C1NCc1ccccc1 [Compound 89b] | did not overcome resistance to KAN |
| CC1=C(c2ccc(C)c(C)c2)S(=O)(=O)N=C1NCC(=O)NCc1ccc2c(c1)OCO2 [Compound 115i] | did not overcome resistance to KAN |
| CCCNC1=NS(=O)(=O)C(c2ccc(F)cc2)=C1C [Compound 139b] | did not overcome resistance to KAN |
| CCCNC1=NS(=O)(=O)C(c2ccc(C)cc2)=C1C [Compound 139e] | did not overcome resistance to KAN |
| CCCNC1=NS(=O)(=O)C(c2ccc(C)c(C)c2)=C1C [Compound 139i] | did not overcome resistance to KAN |
